From patent US20100298141A1, “SUBSTITUTED PYRIDINE N-OXIDE HERBICIDES” (E. I. DU PONT DE NEMOURS AND COMPANY, priority 2007, published 2010)

Key:
winter barley = experiment: Test C postemergence test; assay type: in vivo, Hordeum vulgare; settings: for Plant response rating, Barley: scale 0 to 100, 0 no effect, 100 complete control
Method: (§1) At the same time, plants selected from these crop and weed species and also winter barley (Hordeum vulgare), canarygrass (Phalaris minor), and chickweed (Stellaria media) were treated with postemergence applications of some of the test chemicals formulated in the same manner. Plants ranged in height from 2 to 18 cm (1- to 4-leaf stage) for postemergence treatments. […] At time of treatment, test pots were flooded to 3 cm above the soil surface, treated by application of test compounds directly to the paddy water, and then maintained at that water depth for the duration of the test. Treated plants and controls were maintained in a greenhouse for 13 to 15 days, after which time all species were compared to controls and visually evaluated. […] A dash (-) response means no test result.

chickweed = experiment: Test C postemergence test; assay type: in vivo, Stellaria media; settings: for Plant response rating, Chickweed: scale 0 to 100, 0 no effect, 100 complete control
Method: as §1

windgrass = experiment: Test C pre-/postemergence test; assay type: in vivo, Apera spica-venti; settings: Postemergence; for Plant response rating, Windgrass: scale 0 to 100, 0 no effect, 100 complete control
Excerpt: Seeds of plant species selected from blackgrass (Alopecurus myosuroides), downy brome (Bromus tectorum), green foxtail (Setaria viridis), Italian ryegrass (Lolium multiflorum), wheat (Triticum aestivum), wild oat (Avena fatua), catchweed bedstraw (Galium aparine), Russian thistle (Salsola kali), […] (Cynodon dactylon), Surinam grass (Brachiaria decumbens), cocklebur (Xanthium strumarium), corn (Zea mays), crabgrass (Digitaria sanguinalis), woolly cupgrass (Eriochloa villosa), giant foxtail (Setaria faberii), Goosegrass (Eleusin indica), johnsongrass (Sorghum halepense), kochia (Kochia scoparia), lambsquarters (Chenopodium album), morningglory (Ipomoea coccinea), eastern black nightshade (Solanum ptycanthum), yellow nutsedge (Cyperus esculentus), pigweed (Amaranthus retroflexus), common ragweed (Ambrosia elation), soybean (Glycine max), common (oilseed) sunflower (Helianthus annuus), and velvetleaf (Abutilon theophrasti) were planted and treated preemergence with test chemicals formulated in a non-phytotoxic solvent mixture which included a surfactant. At the same time, plants selected from these crop and weed species and also winter barley (Hordeum vulgare), canarygrass (Phalaris minor), and chickweed (Stellaria media) were treated with postemergence applications of some of the test chemicals formulated in the same manner. Plants ranged in height from 2 to 18 cm (1- to 4-leaf stage) for postemergence treatments. […] At time of treatment, test pots were flooded to 3 cm above the soil surface, treated by application of test compounds directly to the paddy water, and then maintained at that water depth for the duration of the test. […] A dash (-) response means no test result.

canarygrass = experiment: Test C postemergence test; assay type: in vivo, Phalaris minor; settings: for Plant response rating, Canarygrass: scale 0 to 100, 0 no effect, 100 complete control
Method: as §1

johnsongrass = experiment: Test F preemergence test; assay type: in vivo, Sorghum halepense; settings: scale 0 to 100
Excerpt: (§2) Seeds of plant species selected from bermudagrass (Cynodon dactylon), Surinam grass (Brachiaria decumbens), large crabgrass (Digitaria sanguinalis), green foxtail (Setaria viridis), goosegrass (Eleusine indica), johnsongrass (Sorghum halepense), kochia (Kochia scoparia), pitted morningglory (Ipomoea lacunosa), purple nutsedge (Cyperus rotundus), common ragweed (Ambrosia elation), mustard (Brassica nigra), guineagrass (Panicum maximum), […] (Paspalum dilatatum), barnyardgrass (Echinochloa crus-galli), southern sandbur (Cenchrus echinatus), common sowthistle (Sonchus oleraceous), prickly […] spinosa), Italian ryegrass (Lolium multiflorum), common purslane (Portulaca oleracea), broadleaf signalgrass (Brachiaria platyphylla), common groundsel (Senecio vulgaris), common chickweed (Stellaria media), Virginia dayflower (Commelina virginica), annual bluegrass (Poa annua), naked crabgrass (Digitaria nuda), […] cochinchinensis), quackgrass (Elytrigia repens), Canada horseweed (Conyza canadensis), field bindweed (Convolvulus arvensis), […] (Bidens bipinnata), common mallow (Malva sylvestris), Russian thistle (Salsola kali), and sugarcane (Saccharum officinarum) were planted and treated preemergence with test chemicals formulated in a non-phytotoxic solvent mixture which included a surfactant. At a different time, sugarcane was treated with postemergence applications of some of the test chemicals formulated in the same manner. Plants were approximately 3- to 4-leaf stage for the postemergence treatments. Treated plants and controls were maintained in a greenhouse for 14 to 21 days, after which time all species were compared to controls and visually evaluated. […] A dash (-) response means no test result.

Canada horseweed = experiment: Test F preemergence test; assay type: in vivo, Conyza canadensis; settings: scale 0 to 100
Excerpt: as §2

common sowthistle = experiment: Test F preemergence test; assay type: in vivo, Sonchus oleraceous; settings: scale 0 to 100
Excerpt: as §2

Structure (SMILES) | Plant response rating (0 to 100), Barley (winter barley; 31 g ai/ha) | Plant response rating, Barley (winter barley; 62 g ai/ha) | Plant response rating, Barley (winter barley; 125 g ai/ha) | Plant response rating, Barley (winter barley; 250 g ai/ha) | Plant response rating (0 to 100), Chickweed (chickweed; 31 g ai/ha) | Plant response rating, Chickweed (chickweed; 62 g ai/ha) | Plant response rating, Chickweed (chickweed; 125 g ai/ha) | Plant response rating, Chickweed (chickweed; 250 g ai/ha) | Plant response rating (0 to 100), Windgrass (windgrass; 31 g ai/ha) | Plant response rating (0 to 100), Windgrass (windgrass; 62 g ai/ha) | Plant response rating, Windgrass (windgrass; 125 g ai/ha) | Plant response rating, Windgrass (windgrass; 250 g ai/ha) | Plant response rating (0 to 100), Canarygrass (canarygrass; 31 g ai/ha) | Plant response rating, Canarygrass (canarygrass; 62 g ai/ha) | Plant response rating, Canarygrass (canarygrass; 125 g ai/ha) | Plant response rating, Canarygrass (canarygrass; 250 g ai/ha) | Plant response rating, Johnsongrass (johnsongrass; 16 g ai/ha, preemergence) | Johnsongrass plant response rating (johnsongrass; 62 g ai/ha, Preemergence) | Johnsongrass plant response rating (johnsongrass; 125 g ai/ha, preemergence) | Plant response rating, Johnsongrass (johnsongrass; Preemergence, 31 g ai/ha) | other results
CCn1nc(C(F)(F)F)c(C[S+]([O-])c2cccc[n+]2[O-])c1OCC(F)(F)F (racemic) [Compound 65] | 0 | 20 | 40 | 40 | 30 | 40 | 80 | 100 | 50 | 90 | 100 | 100 | 0 | 20 | 20 | 25 | – | – | – | – | –
[O-][n+]1cc(Cl)ccc1[S+]([O-])Cc1c(C(F)(F)F)nn(CC(F)(F)F)c1Cl (centres unmarked) [Compound 47] | 0 | 0 | 10 | 45 | 0 | 0 | 0 | 0 | 0 | 0 | 95 | 98 | 0 | 0 | 0 | 40 | – | – | – | – | –
CC(c1c(C(F)(F)F)nn(C)c1Cl)S(=O)(=O)c1ccc(Cl)c[n+]1[O-] (racemic) [Compound 40] | 0 | 0 | 0 | 0 | 0 | 0 | 0 | 0 | 45 | 45 | 85 | 85 | 0 | 0 | 0 | 30 | – | – | – | – | –
Cn1nc(C(F)(F)C(F)(F)F)c(C[S+]([O-])c2cccc[n+]2[O-])c1OCC(F)(F)F (centres unmarked) [Compound 79] | 0 | – | 0 | 0 | 70 | – | 100 | 100 | 60 | 100 | 100 | 100 | 0 | – | 0 | 0 | 0 | 90 | 100 | 50 | Plant response rating (0 to 100), Barley (winter barley; 62 g ai/ha): 0; Plant response rating (0 to 100), Chickweed (chickweed; 62 g ai/ha): 100; Plant response rating (0 to 100), Canarygrass (canarygrass; 62 g ai/ha): 0
Cc1cc([S+]([O-])Cc2c(C(F)(F)F)nn(C)c2OCC(F)(F)F)[n+]([O-])cc1Cl (centres unmarked) [Compound 70] | – | – | – | – | – | – | – | – | – | – | – | – | – | – | – | – | 90 | 100 | 100 | 90 | –
Cn1nc(C(F)(F)F)c(C[S+]([O-])c2cccc[n+]2[O-])c1OCC(F)(F)C(F)(F)F (centres unmarked) [Compound 78] | 0 | 0 | 0 | 0 | 0 | 0 | – | – | 0 | 0 | 95 | 100 | 0 | 0 | 0 | 0 | – | – | – | – | –
CC(Oc1c(CS(=O)(=O)c2cccc[n+]2[O-])c(C(F)(F)F)nn1C)C(F)(F)F (centres unmarked) [Compound 82] | 0 | – | 0 | 0 | 0 | – | 0 | 0 | 70 | 90 | 100 | 100 | 0 | – | 0 | 0 | – | – | 100 | 35 | Plant response rating (0 to 100), Barley (winter barley; 62 g ai/ha): 0; Plant response rating (0 to 100), Chickweed (chickweed; 62 g ai/ha): 0; Plant response rating (0 to 100), Canarygrass (canarygrass; 62 g ai/ha): 0; Plant response rating, Johnsongrass (johnsongrass; Preemergence, 62 g ai/ha): 100
CCn1nc(C(F)(F)F)c(CS(=O)(=O)c2cccc[n+]2[O-])c1OCC(F)(F)F [Compound 63] | – | – | – | – | – | – | – | – | – | – | – | – | – | – | – | – | 35 | 100 | 100 | 80 | Plant response rating, Horseweed (Canada horseweed; 16 g ai/ha, preemergence): 0; Horseweed plant response rating (Canada horseweed; 62 g ai/ha, Preemergence): 98; Horseweed plant response rating (Canada horseweed; 125 g ai/ha, preemergence): 100; Plant response rating, Horseweed (Canada horseweed; Preemergence, 31 g ai/ha): 98
CC(Oc1c(C[S+]([O-])c2cccc[n+]2[O-])c(C(F)(F)F)nn1C)C(F)(F)F (centres unmarked) [Compound 77] | – | – | – | – | – | – | – | – | – | – | – | – | – | – | – | – | 0 | 85 | 100 | 75 | Plant response rating, Sowthistle (common sowthistle; 16 g ai/ha, preemergence): 0; Sowthistle plant response rating (common sowthistle; 125 g ai/ha, preemergence): 50; Plant response rating, Sowthistle (common sowthistle; Preemergence, 31 g ai/ha): 0; Plant response rating, Horseweed (Canada horseweed; 16 g ai/ha, preemergence): 0; Horseweed plant response rating (Canada horseweed; 62 g ai/ha, Preemergence): 98; Horseweed plant response rating (Canada horseweed; 125 g ai/ha, preemergence): 100; Plant response rating, Horseweed (Canada horseweed; Preemergence, 31 g ai/ha): 50
CCn1nc(C(F)(F)F)c(C(C)S(=O)(=O)c2cccc[n+]2[O-])c1OCC(F)(F)F (centres unmarked) [Compound 69] | 0 | 0 | 20 | 25 | 0 | 0 | 0 | 40 | 40 | 95 | 95 | 100 | 0 | 0 | 0 | 10 | – | – | – | – | –
